Assay: blood concentration and clearance after injection in tumor-bearing rats
Assay type: in vivo, Fischer female rats
Conditions: high iodine dose (1,344 mgl/mL)
Description: Contrast-enhanced mammography was performed with a commercial digital mammography system (Senographe 2000D, GE Healthcare) at 49 kVp and 63 mAs with a rhodium target and an extra copper filter of 0.3 mm thickness. These settings were used to shape the x-rays to have optimal energies for iodine. […] Initial studies were performed with high doses of the nano-probe to obtain a vascular image. A pre-contrast image (FIG. 2(a)) and post-contrast images were acquired 1, 5, 10, and 15 minutes after tail vein injection of the nano-probe. […] In the case of an adult human, this would correspond to a dose of about 654 mL of the nano-probe (assuming a blood volume of five liters), which is prohibitively large for use in humans. However, this high dose was used to clearly visualize the blood vessels that the mammography system was capable of detecting.
Another control group was injected with a conventional iodinated agent (iohexol) at an iodine dose equivalent to the high dose of 1,344 mgl/mL of the nano-probe. (See FIG. 7). […] (See FIG. 8).

clearance: rapidly cleared via the kidneys
SMILES: CC(=O)N(CC(O)CO)c1c(I)c(C(=O)NCC(O)CO)c(I)c(C(=O)NCC(O)CO)c1I (stereo not shown) [iohexol]
